# Reference: publication PMC11677243, “Target protein identification in live cells and organisms with a non-diffusive proximity tagging system” (eLife, 2024)
# Legend:
# HEK293T cells [1] = test: POST-IT^DC661-H1 target-ID by SILAC (LC-MS/MS, DC660 competition); type: cell-based, Homo sapiens; settings: heavy: 200 nM DC661-H1, light: DC661-H1 (200 nM) and DC660 (2 µM)
# Description: A stable HEK293T cells expressing the POST-IT system was generated using the PiggyBac transposon system. Briefly, HEK293T cells on a 60 mm dish were co-transfected with 8 µg of PB-puro-CMV-POST-IT-Tet-SBP^K4R-sPup^K61R-iresGFP and 2 µg of the Super PiggyBac Transposase expression vector (PB200PA-1, System Biosciences, USA). Four days later, cells were treated with 5 µg/ml puromycin for about 2 weeks. Media containing puromycin were changed every 3–4 days.
# The stable cell line was cultured in SILAC DMEM (280001200, Silantes, Germany) without arginine, lysine, and glutamine, supplemented with 10% dialyzed FBS (C3820-0100, VivaCell Biosciences, China) and 2 mM glutamine. The SILAC medium included 600 mg/l proline (P120032, aladdin, China) to prevent the conversion of arginine to proline ([Bendall et al., 2008]). […]
# The expression of POST-IT was induced by the addition of 100 ng/ml doxycycline. […] Cell debris was removed by centrifugation, and protein concentration was determined by the BCA assay. […]
# Excised gels were sliced into small pieces of ~1 mm^3, rinsed three times with Milli-Q water, decolorized with 50% acetonitrile and 100 mM NH4HCO3, and dehydrated with 100% acetonitrile. […] The resulting tryptic peptides were analyzed by LC-MS/MS at the Institute of Hydrobiology (Chinese Academy of Sciences, Wuhan, China). […]
# LC3-II [2] = test: Autophagy inhibition by LC3-II western blot in HEK293T cells; type: cell-based, Homo sapiens; settings: 12 hr
# From the text: (§1) Cells transfected and/or treated with different compounds were harvested at the end of treatment.
# LC3-II [3] = test: Autophagy inhibition by LC3-II western blot in A375 cells; type: cell-based, Homo sapiens; settings: 12 hr
# From the text: as §1
# VPS37C-V5 = target: T1, VPS37C-V5 (Homo sapiens, UniProt A5D8V6); test: POST-IT labeling and streptavidin pulldown of VPS37C-V5 in HEK293T cells; type: cell-based; settings: 200 nM DC661-H1, 24 hr
# T1 construct: expressed in transfected cells; host or cells: HEK293T
# T1 sequence (A5D8V6 whole entry): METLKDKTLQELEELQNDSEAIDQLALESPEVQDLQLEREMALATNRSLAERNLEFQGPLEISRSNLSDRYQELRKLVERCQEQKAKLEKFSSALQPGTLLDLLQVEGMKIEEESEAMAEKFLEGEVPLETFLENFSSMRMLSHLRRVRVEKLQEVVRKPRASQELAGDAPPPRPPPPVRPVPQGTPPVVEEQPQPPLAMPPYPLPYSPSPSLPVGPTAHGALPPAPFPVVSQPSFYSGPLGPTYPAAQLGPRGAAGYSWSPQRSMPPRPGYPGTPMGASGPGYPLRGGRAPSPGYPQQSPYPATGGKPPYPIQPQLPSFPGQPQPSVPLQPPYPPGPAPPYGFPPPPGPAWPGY
# SEPHS2 = target: T2, SEPHS2 (Homo sapiens, UniProt Q99611, U60C); test: MST binding to Cy5-labeled SEPHS2; settings: Cy5-labeled recombinant SEPHS2; n = 2, mean ± s.d.
# T2 construct: SBPII (N); 6xHis (pET28a backbone, Ni column purification); made in house; host or cells: E. coli BL21(DE3)
# T2 sequence (Q99611 with tags, fused parts or gaps U60C): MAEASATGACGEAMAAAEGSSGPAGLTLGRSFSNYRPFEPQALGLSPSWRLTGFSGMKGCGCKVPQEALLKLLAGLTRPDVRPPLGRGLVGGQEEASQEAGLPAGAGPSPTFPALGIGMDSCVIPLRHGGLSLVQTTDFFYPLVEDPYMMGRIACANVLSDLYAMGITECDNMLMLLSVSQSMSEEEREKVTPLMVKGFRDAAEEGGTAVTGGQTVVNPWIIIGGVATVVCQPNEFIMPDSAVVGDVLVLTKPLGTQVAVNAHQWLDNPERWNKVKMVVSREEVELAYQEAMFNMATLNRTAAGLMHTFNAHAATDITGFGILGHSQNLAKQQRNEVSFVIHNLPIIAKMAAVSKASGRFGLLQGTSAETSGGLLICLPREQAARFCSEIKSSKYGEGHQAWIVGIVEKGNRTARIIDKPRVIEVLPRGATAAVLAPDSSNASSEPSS
# SRC [4] = target: T3, SRC (Homo sapiens, UniProt P12931); test: In cellulo pupylation and pulldown assay of SRC in HEK293T cells; type: cell-based; settings: 250 nM DH5
# T3 construct: endogenous in cells; host or cells: HEK293T
# T3 sequence (P12931 2-536): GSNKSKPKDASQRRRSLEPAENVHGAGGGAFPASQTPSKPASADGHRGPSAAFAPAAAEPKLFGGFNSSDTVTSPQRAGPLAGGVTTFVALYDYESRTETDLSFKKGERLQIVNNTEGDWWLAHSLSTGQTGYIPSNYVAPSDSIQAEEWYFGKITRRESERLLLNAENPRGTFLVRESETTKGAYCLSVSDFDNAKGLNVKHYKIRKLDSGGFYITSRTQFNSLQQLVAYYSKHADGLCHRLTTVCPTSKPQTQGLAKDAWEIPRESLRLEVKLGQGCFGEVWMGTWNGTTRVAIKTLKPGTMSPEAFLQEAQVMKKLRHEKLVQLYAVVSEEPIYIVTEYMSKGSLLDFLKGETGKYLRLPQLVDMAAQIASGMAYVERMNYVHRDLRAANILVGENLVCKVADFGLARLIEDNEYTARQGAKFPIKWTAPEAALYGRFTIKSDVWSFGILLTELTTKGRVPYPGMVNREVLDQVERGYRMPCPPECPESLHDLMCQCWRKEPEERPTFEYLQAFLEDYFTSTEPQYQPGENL
# HEK293T cells [5] = test: POST-IT^DH5 target-ID proteomics (LC-MS/MS, dasatinib competition); type: cell-based, Homo sapiens; settings: for FC(DH5/DASA) / log2(FC(DH5/DASA)): DH5 vs DH5 + dasatinib competition, imputed data
# Description: HEK293T cells were plated on two 100 mm dishes for each condition and co-transfected next day with 8 µg of pTol2-HA-Halo^8KR-PafA^S126A,K172R and 16 µg of pEF6a-SBP^K4R-sPup^K61R per dish. […] Cells were harvested in 1 ml of RIPA buffer, supplemented with a protease inhibitor cocktail for each dish. Following brief sonication, cell debris was removed by centrifugation at maximum speed for 10 min at 4°C. The supernatants were collected and mixed with 200 µl of streptavidin magnetic beads that had been prewashed with RIPA buffer. […] The eluates were combined and precipitated using trichloroacetic acid (TCA)/DOC. The resultant protein pellets were neutralized with 1 M Tris-HCl pH 8.8, and separated by Tricine-SDS-PAGE, and the CBB-stained bands were excised, with those smaller than 10 kD being removed, and processed for mass analysis.
# Excised gels were sliced into small pieces of ~1 mm^3, rinsed three times with Milli-Q water, decolorized with 50% acetonitrile and 100 mM NH4HCO3, and dehydrated with 100% acetonitrile. The dehydrated gel pieces were then reduced with 10 mM DTT in 50 mM NH4HCO3 at 56°C for 1 hr, carboxymethylated with 55 mM iodoacetamide in the dark at room temperature for 30 min, and digested with trypsin at a 1:50 enzyme to protein mass ratio at 37°C overnight. The peptides were collected, desalted with ZipTipC18 (ZTC18S096, Millipore, USA), dried under vacuum, and stored at –20°C until MS analysis. The resulting tryptic peptides were analyzed by LC-MS/MS at the Institute of Hydrobiology (Chinese Academy of Sciences, Wuhan, China). LC-MS/MS data acquisition was performed using a Q Exactive HF-X mass spectrometer coupled with an Easy-nLC 1200 system (Thermo Fisher Scientific, USA). The peptide mixtures were initially loaded onto a C18 trap column and subsequently separated on a C18 reverse-phase analytical HPLC column, Acclaim PepMap C18 column (75 µm ID ×250 mm, 2 µm particle size, 100 Å pore size, Thermo Fisher Scientific), employing a 100 min gradient program with mobile phase A (0.1% formic acid) and mobile phase B (80% acetonitrile, 0.1% formic acid). The gradient program was as follows: 0–65 min, 5–23% B; 65–85 min, 23–45% B; 85–86 min, 45–90% B; 87–90 min, 90% B; 90–90.1 min, 90–5% B; 90.1–100 min, 5% B, maintained at a constant flow rate of 300 nl/min. For data-dependent acquisition mode analysis, each scan cycle consisted of one full-scan mass spectrum (R = 60 K, AGC = 3e6, max IT = 20 ms, scan range = 350–1800 m/z) followed by 20 MS/MS events (R = 15 K, AGC = 2e5, max IT = 50 ms). The higher-energy collisional dissociation collision energy was set to 28 for ion fragmentation. The isolation window for precursor selection was set to 1.6 Da. The former target ion exclusion was set for 25 s.
# For the identification of DH5 targets, raw MS data were analyzed using MaxQuant (version 2.1.0.0, Max Planck Institute of Biochemistry; [Cox and Mann, 2008]) with the Andromeda search engine. The MS data were aligned to the UniProt human protein database (Proteome ID: UP000005640). […] Variable modifications included oxidation (M), acetyl (Protein N-term), deamidation (NQ), and GGE (K). The false discovery rate for both peptide and protein identification was set at 1%. The ‘Match Between run’ option were enabled, with other settings at their default values. Missing values from identified proteins were filled through random imputation and further analyzed statistically to derive p values through unpaired SAM analysis using PANDA-view ([Chang et al., 2018]). Proteins commonly present under DMSO condition were considered nonspecific background interactions and excluded from further analysis.
# SRC [6] = target: T4, SRC (Danio rerio, UniProt Q1JPZ3); test: In vivo pupylation assay using zebrafish embryos; settings: 10 µM DH5, 24 hr, versus DMSO
# T4 construct: from tissue; host or cells: whole zebrafish embryos (AB strain) injected with the POST-IT plasmid
# T4 sequence (Q1JPZ3 whole entry): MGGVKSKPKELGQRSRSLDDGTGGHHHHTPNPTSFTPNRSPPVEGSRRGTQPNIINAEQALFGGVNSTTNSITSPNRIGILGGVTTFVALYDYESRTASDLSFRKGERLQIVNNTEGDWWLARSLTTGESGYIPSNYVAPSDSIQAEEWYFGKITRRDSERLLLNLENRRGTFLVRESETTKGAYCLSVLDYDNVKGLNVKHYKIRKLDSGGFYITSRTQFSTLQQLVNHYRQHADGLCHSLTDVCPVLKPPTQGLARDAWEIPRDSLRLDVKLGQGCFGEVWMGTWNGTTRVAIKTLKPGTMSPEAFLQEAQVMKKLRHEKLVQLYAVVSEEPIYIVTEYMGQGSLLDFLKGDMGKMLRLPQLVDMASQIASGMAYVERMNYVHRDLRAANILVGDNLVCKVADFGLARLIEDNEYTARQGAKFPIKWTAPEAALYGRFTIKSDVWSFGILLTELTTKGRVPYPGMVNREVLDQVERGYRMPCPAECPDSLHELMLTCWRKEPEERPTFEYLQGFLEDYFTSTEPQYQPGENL
# Description: To express POST-IT in early zebrafish embryos, 20 pg of pUbi-QFGal4-2A-3×Flag-POST-IT plasmid and 25 pg of transposase mRNA were injected into an embryo at the one-cell stage. The next day, GFP-positive and live embryos were selected, dechorionated with Pronase E (HY-114158, MedChemExpress, USA), and divided into two groups of approximately 1000 embryos each. One group was treated with DMSO and the other with 10 µM DH5 for 24 hr. The embryos were then collected, rinsed with PBS, and lysed in cell lysis buffer using a motorized plastic pestle. The resulting lysates were cleared by centrifugation, and protein concentrations were measured using the BCA assay. Samples were diluted to 2 mg/ml in 1 ml, mixed with 200 µl of prewashed streptavidin magnetic beads, and incubated at 4°C for 3 hr. The beads were washed five times with wash buffer A. Proteins were eluted with 2×SDS sample buffer and subsequently processed for western blot analysis.
# SRC(251-536) = SRC(251-536) (Homo sapiens, UniProt P12931); test: SRC kinase activity assay (Kinase-Lumi luminescent)
# Sequence of SRC(251-536) (P12931 251-536): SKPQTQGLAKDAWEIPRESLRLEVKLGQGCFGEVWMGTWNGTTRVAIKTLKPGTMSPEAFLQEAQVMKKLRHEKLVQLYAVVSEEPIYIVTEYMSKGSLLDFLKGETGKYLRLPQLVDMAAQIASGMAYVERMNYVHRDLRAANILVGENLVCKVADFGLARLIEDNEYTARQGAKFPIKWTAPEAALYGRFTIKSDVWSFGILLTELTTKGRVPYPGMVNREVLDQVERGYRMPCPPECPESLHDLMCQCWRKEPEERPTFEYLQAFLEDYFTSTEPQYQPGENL
smiles,measurement,setting,value
O=C(CN(CCCCCCNc1ccnc2cc(Cl)ccc12)CCCCCCNc1ccnc2cc(Cl)ccc12)NCCCCCNC(=O)OCCOCCOCCOC(=O)NCCOCCOCCCCCCCl [DC661-H1],target proteins identified by POST-IT^DC661-H1 (SILAC),HEK293T cells [1],identified several target proteins directly linked to autophagy regulation
same,levels of LC3-II band (autophagy inhibition),LC3-II [2],significantly increased
same,levels of LC3-II band (autophagy inhibition),LC3-II [3],significantly increased
same,enrichment of VPS37C-V5 after streptavidin pulldown,VPS37C-V5,substantially enriched
"Cc1nc(Nc2ncc(C(=O)Nc3c(C)cccc3Cl)s2)cc(N2CCN(CCOC(=O)NCCCCCNC(=O)OCCOCCOCCOC(=O)NCCOCCOCCCCCCCl)CC2)n1 [DH5, 23-Chloro-10-oxo-3,6,9,14,17-pentaoxa-11-azatricosyl(2-(4-(6-((5-((2-chloro-6-methylphenyl)carbamoyl)thiazol-2-yl)amino)-2-methylpyrimidin-4-yl)piperazin-1-yl)ethyl) pentane-1,5-diyldicarbamate]",Kd,SEPHS2,11.6 ± 5.7 µM
same,POST-IT pulldown of endogenous SRC,SRC [4],efficiently pull down endogenous SRC
same,target proteins identified by POST-IT^DH5,"HEK293T cells [5]; HEK293T, 250 nM DH5 with or without 2.5 µM dasatinib, 24 hr","eight known target proteins (FYN, RIPK2, MAPK14, ABL2, ABL1, CSK, LYN, and SRC) with significant enrichment"
same,FC(DH5/DASA),HEK293T cells [5]; protein AAGAB,1.3259
same,log2(FC(DH5/DASA)),HEK293T cells [5]; protein AAGAB,0.4070
same,FC(DH5/DASA),HEK293T cells [5]; protein AAK1,2.0012
same,log2(FC(DH5/DASA)),HEK293T cells [5]; protein AAK1,1.0009
same,FC(DH5/DASA),HEK293T cells [5]; protein AAMDC,1.9368
same,log2(FC(DH5/DASA)),HEK293T cells [5]; protein AAMDC,0.9537
same,FC(DH5/DASA),HEK293T cells [5]; protein AAR2,1.5565
same,log2(FC(DH5/DASA)),HEK293T cells [5]; protein AAR2,0.6383
same,FC(DH5/DASA),HEK293T cells [5]; protein AARS,1.1988
same,log2(FC(DH5/DASA)),HEK293T cells [5]; protein AARS,0.2616
same,enrichment of endogenous SRC by POST-IT in live embryos,SRC [6],marked enrichment
same,IC50,SRC(251-536),452 nM
